The values that follow are results of earlier work, collected in patent US9867849B2, “Methods of treating or ameliorating skin conditions with a magnetic dipole stabilized solution” (REVEN PHARMACEUTICALS, INC., priority 2010, dated 2018).

The conditions of data set [1]: more than 500 postmenopausal women; dietary intake.
The conditions of data set [2]: 121 patients with hepatocellular carcinoma undergoing conventional therapy; 45 mg/day oral.
The conditions of data set [3]: rabbits.
For data set [4], the system named is blast cell numbers in bone marrow and/or peripheral blood. The settings on record: of those receiving other medication concomitantly; 20-135 mg/day orally or 10-50 mg/day intravenously.
The conditions of data set [5]: rats; 100 mg/kg body weight daily.
For data set [6] the following is noted: 241 osteoporotic women, 45 mg/day vitamin K2 and 150 mg elemental calcium, after two years.
The conditions of data set [7]: higher intake of vitamin K2.

On to `CC(C)=CCC/C(C)=C/CC/C(C)=C/CC/C(C)=C/CC1=C(C)C(=O)c2ccccc2C1=O` [Vitamin K2], for which the “coronary calcification (association with intake)” value in data set [1] was “associated with the trend toward decreasing coronary calcification”. Also, in data set [2], the survival result is given as “significant increase in survival”. In data set [3] (1-10 mg/kg daily for 10 weeks), the “atherosclerotic plaque progression in the aorta and pulmonary arteries” value is given as “inhibited”. Also, in data set [3] (compared to the control group), the “ester cholesterol deposition in the aorta” value is reported as “reduce”, the “factor X activity in plasma” value is given as “reduce”, the lipid peroxidation entry is recorded as “reduce” and the total cholesterol levels entry was “reduce”. For the same compound, the “patients in whom blast cell numbers in bone marrow and/or peripheral blood were reduced” value in data set [4] is listed as ~71%. Further, the “increase in calcium in both kidneys and aorta induced by megadose of synthetic vitamin D” value in data set [5] is “inhibited”. The “lumbar bone mineral density” value in data set [6] is reported as “maintain lumbar bone mineral density”. Besides, in data set [6] (30% in the control group), the fracture incidence is given as 10%. The “reduction of prostate cancer risk” value in data set [7] was 35%.
